Our source for the IC50 values is patent US9309196B2, “Indole derivatives and process for their preparation” (Ramot at Tel-Aviv University Ltd., priority 2010, dated 2016).

By IC50 is commonly meant the concentration needed to halve the response being measured. A higher IC50 goes with lower potency.

T1 sequence (P05067 672-713 limits assumed): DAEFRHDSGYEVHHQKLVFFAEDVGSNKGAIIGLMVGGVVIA

This test has as its target T1, monomeric Aβ1-42 (Homo sapiens, UniProt P05067).
T1 construct: Aβ1-42 (#60-0-80, American Peptide, Sunnyvale, Calif. USA); purchased American Peptide, Sunnyvale, Calif; USA #60-0-80
Briefly: Surface plasmon resonance (SPR) binding of compounds to immobilized Aβ1-42 monomers (Biacore X100). The note with it: compounds 0.1 nM to 300 nM, 25° C., steady-state analysis, repeated tests. The method, then: Aβ monomers were covalently coupled to one flow cell of CM7 sensor chips (GE Lifesciences, Uppsala, Sweden) via primary amines using the Amine Coupling Kit (GE Lifesciences, Uppsala, Sweden). As a control, ethanolamine was immobilized on the reference channel. […] One RU represents about 1 pg/mm^2 of the analytes on the surface matrix of the sensor chip.
Concentrations were tested in duplicate.
The RUs elicited by the compound injected into the ethanolamine control flow cell was set as reference response and subtracted from the RUs elicited by the same compound injected to the Aβ saturated flow cell. The relationships between each RU obtained at the steady state of binding (plateau of the binding curve) and each concentration of the compound were plotted.
After the analyte injection was stopped, HBS-EP buffer was flowed over the chip for 180 s to allow the bound analyte to dissociate from the immobilized Aβ and the dissociation curves were obtained.
The dissociation equilibrium constant KD of the analyte to the immobilized Aβ was determined from the steady-state levels estimating the maximum RU Rmax and calculating the KD as the concentration of the compound that elicited one-half of the Rmax.
A general note: Surface plasmon resonance follows binding to a sensor surface in real time, without labels.
The molecule `CNC(=O)C(C)(C)/C=C/[C@H](N)Cc1c[nH]c2ccccc12` [Example 4, (E)-(R)-5-Amino-6-(1H-indol-3-yl)-2,2-dimethyl-hex-3-enoic-acid-methylamide] had an IC50 of 6.8 nM.

As for `CC(=O)N[C@@H](/C=C/C(C)(C)C(=O)O)Cc1c[nH]c2ccccc12` [Example 5, (E)-(R)-5-Acetylamino-6-(1H-indol-3-yl)-2,2-dimethyl-hex-3-enoic-acid], the IC50 was 42.1 nM.

`CC(C)(/C=C/[C@H](N)Cc1c[nH]c2ccccc12)C(N)=O` [Example 3, (E)-(R)-5-Amino-6-(1H-indol-3-yl)-2,2-dimethyl-hex-3-enoic acid amide] came in with an IC50 of 0.5 nM.
